Source: patent US8952024B2, “Herbicidal pyrimidone derivatives” (E I du Pont de Nemours and Company, priority 2009, dated 2015)

Assays:
Format in all cases: in vivo
[1] = test system: morningglory (Ipomoea spp.); test: Test A pre-/postemergence plant response
Summary of the method: (§1)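 Pre: directed soil spray on seeded loam/sand blend. Post: same formulation (non-phytotoxic solvent + surfactant) on 2–10 cm plants, 1–2 leaf stage. Greenhouse ~10 d; visual injury score 0–100 vs untreated.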

corn (Zea mays) = test: Test A pre-/postemergence plant response
Summary of the method: as §1

[2] = test system: wheat (Triticum aestivum); test: Test A pre-/postemergence plant response
Summary of the method: as §1

[3] = test system: large crabgrass (Digitaria sanguinalis); test: Test A pre-/postemergence plant response
Summary of the method: as §1

[4] = test system: giant foxtail (Setaria faberii); test: Test A pre-/postemergence plant response
Summary of the method: as §1

[5] = test system: velvetleaf (Abutilon theophrasti); test: Test A pre-/postemergence plant response
Summary of the method: as §1

[6] = test system: winter barley (Hordeum vulgare); test: Test B postemergence plant response
Summary of the method: (§2)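 Plants grown in peat/vermiculite medium were sprayed postemergence at 2–18 cm height (1- to 4-leaf stage). After 13–15 days in the greenhouse, response was rated visually against untreated controls on a 0–100 scale (0 no effect, 100 complete control).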

[7] = test system: chickweed (Stellaria media); test: Test B postemergence plant response
Summary of the method: as §2

[8] = test system: canarygrass (Phalaris minor); test: Test B postemergence plant response
Summary of the method: as §2

[9] = test system: windgrass (Apera spica-venti); test: Test B postemergence plant response
Summary of the method: as §2

[10] = test system: galium (catchweed bedstraw, Galium aparine); test: Test B pre-/postemergence plant response; settings: Preemergence
Summary of the method: (§3)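 Compound in solvent + surfactant applied pre-em (loam/sand) or post-em (plants 2–18 cm, peat medium); greenhouse hold 13–15 days; visual 0–100 control score.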

[11] = test system: sunflower (common oilseed sunflower, Helianthus annuus); test: Test B pre-/postemergence plant response; settings: Preemergence
Summary of the method: as §3

[12] = test system: nightshade (eastern black nightshade, Solanum ptycanthum); test: Test B pre-/postemergence plant response; settings: Preemergence
Summary of the method: as §3

[13] = Postemergence, 125 g ai/ha, visual injury, 0 to 100 scale (0 no effect, 100 complete control), approx. ten days
[14] = Postemergence, 500 g ai/ha, 0 to 100 scale, 0 = no effect, 100 = complete control, approx. ten days
[15] = Preemergence, 500 g ai/ha, visual injury, 0 to 100 scale (0 no effect, 100 complete control), approx. ten days
[16] = Preemergence, 125 g ai/ha, 0 to 100 scale, 0 = no effect, 100 = complete control
[17] = 31 g ai/ha, postemergence, scale 0 to 100, 0 is no effect, 100 is complete control
[18] = 62 g ai/ha, postemergence, 0 is no effect, 100 is complete control, 13 to 15 days
[19] = Postemergence, 125 g ai/ha, visual rating after 13 to 15 days, scale 0 (no effect) to 100 (complete control)
[20] = Postemergence, 250 g ai/ha, scale 0 to 100 (0 no effect, 100 complete control)
[21] = 31 g ai/ha, scale 0 to 100 (0 no effect, 100 complete control)
[22] = 62 g ai/ha, scale 0 to 100, 0 no effect, 100 complete control
[23] = 125 g ai/ha, scale 0 to 100, 0 no effect, 100 complete control
[24] = Postemergence, 500 g ai/ha, visual injury, 0 to 100 scale (0 no effect, 100 complete control), approx. ten days
[25] = Preemergence, 125 g ai/ha, 0 to 100 scale where 0 is no effect and 100 is complete control, approximately ten days
[26] = Preemergence, 500 g ai/ha, 0 to 100 scale, 0 = no effect, 100 = complete control
[27] = Postemergence, 125 g ai/ha, 0 to 100 scale where 0 is no effect and 100 is complete control
[28] = Postemergence, 31 g ai/ha, 0 to 100 scale (0 no effect, 100 complete control)
[29] = Postemergence, 125 g ai/ha, scale 0 (no effect) to 100 (complete control), 13 to 15 days
[30] = Postemergence, 250 g ai/ha, scale 0 to 100 (0 no effect, 100 complete control), 13 to 15 days
[31] = Postemergence, 62 g ai/ha, scale 0 to 100 (0 no effect, 100 complete control)

Structure (SMILES): CCCc1ncc(C(=O)C2=C(O)CCCC2=O)c(=O)n1CCC [Compound 72]
- Morningglory plant response rating [1, 13]: 90
- Plant response rating, Morningglory [1, 14]: 90
- Plant response rating, Morningglory [1, 15]: 70
- Corn plant response rating (corn (Zea mays); [13]): 0
- Plant response rating, Corn (corn (Zea mays); [14]): 10
- Plant response rating, Corn (corn (Zea mays); [16]): 0
- Plant response rating, Corn (corn (Zea mays); [15]): 20
- Wheat plant response rating [2, 13]: 0
- Plant response rating, Wheat [2, 14]: 0
- Plant response rating, Wheat [2, 16]: 0
- Plant response rating, Wheat [2, 15]: 0
- Crabgrass, Large plant response rating [3, 13]: 80
- Plant response rating, Crabgrass, Large [3, 14]: 90
- Plant response rating, Crabgrass, Large [3, 16]: 70
- Plant response rating, Crabgrass, Large [3, 15]: 100
- Foxtail, Giant plant response rating [4, 13]: 40
- Plant response rating, Foxtail, Giant [4, 14]: 60
- Plant response rating, Foxtail, Giant [4, 16]: 0
- Plant response rating, Foxtail, Giant [4, 15]: 30
- Velvetleaf plant response rating [5, 13]: 100
- Plant response rating, Velvetleaf [5, 14]: 100
- Plant response rating, Velvetleaf [5, 16]: 90
- Plant response rating, Velvetleaf [5, 15]: 100
- Plant response rating, Barley [6, 17]: 0
- Barley plant response rating (0 to 100 scale) [6, 18]: 0
- Plant response rating, Barley [6, 19]: 0
- Plant response rating, Barley [6, 20]: 0
- Plant response rating, Chickweed [7, 17]: 70
- Chickweed plant response rating (0 to 100 scale) [7, 18]: 85
- Plant response rating, Chickweed [7, 19]: 90
- Plant response rating, Chickweed [7, 20]: 90
- Plant response rating, Canarygrass [8, 17]: 0
- Canarygrass plant response rating (0 to 100 scale) [8, 18]: 0
- Plant response rating, Canarygrass [8, 19]: 0
- Plant response rating, Canarygrass [8, 20]: 0
- Plant response rating, Windgrass [9, 17]: 5
- Windgrass plant response rating (0 to 100 scale) [9, 18]: 20
- Plant response rating, Windgrass [9, 19]: 60
- Plant response rating, Windgrass [9, 20]: 65
- Plant response rating, Galium ([10]; 250 g ai/ha, 0 to 100 scale): 85
- Plant response rating, Galium [10, 21]: 0
- Plant response rating, Galium [10, 22]: 85
- Plant response rating, Galium [10, 23]: 85
- Plant response rating, Sunflower [11, 21]: 25
- Plant response rating, Sunflower [11, 22]: 25
- Plant response rating, Sunflower [11, 23]: 65
- Plant response rating, Nightshade [12, 21]: 95
- Plant response rating, Nightshade [12, 22]: 95
- Plant response rating, Nightshade [12, 23]: 98

Structure (SMILES): COCCCn1c(-c2cc(F)cc(F)c2)ncc(C(=O)C2=C(O)C3CCC(C3)C2=O)c1=O (centres unmarked) [Compound 244]
- Plant response rating, Morningglory [1, 13]: 100
- Morningglory plant response rating [1, 24]: 100
- Plant response rating, Morningglory [1, 25]: 30
- Plant response rating, Morningglory [1, 26]: 80
- Plant response rating, Corn (corn (Zea mays); [27]): 40
- Corn plant response rating (corn (Zea mays); [24]): 80
- Plant response rating, Corn (corn (Zea mays); [25]): 20
- Plant response rating, Corn (corn (Zea mays); [26]): 40
- Plant response rating, Wheat [2, 13]: 40
- Wheat plant response rating [2, 24]: 70
- Plant response rating, Wheat [2, 25]: 0
- Plant response rating, Wheat [2, 26]: 40
- Plant response rating, Crabgrass, Large [3, 27]: 90
- Crabgrass, Large plant response rating [3, 24]: 90
- Plant response rating, Crabgrass, Large [3, 25]: 90
- Plant response rating, Crabgrass, Large [3, 26]: 100
- Plant response rating, Foxtail, Giant [4, 13]: 90
- Foxtail, Giant plant response rating [4, 24]: 90
- Plant response rating, Foxtail, Giant [4, 25]: 70
- Plant response rating, Foxtail, Giant [4, 26]: 100
- Plant response rating, Velvetleaf [5, 13]: 100
- Velvetleaf plant response rating [5, 24]: 100
- Plant response rating, Velvetleaf [5, 25]: 50
- Plant response rating, Velvetleaf [5, 26]: 100
- Plant response rating, Barley [6, 28]: 50
- Plant response rating, Barley [6, 29]: 90
- Plant response rating, Barley [6, 30]: 98
- Plant response rating, Barley [6, 31]: 65
- Plant response rating, Chickweed [7, 28]: 80
- Plant response rating, Chickweed [7, 29]: 98
- Plant response rating, Chickweed [7, 30]: 100
- Plant response rating, Chickweed [7, 31]: 95
- Plant response rating, Canarygrass [8, 28]: 80
- Plant response rating, Canarygrass [8, 29]: 98
- Plant response rating, Canarygrass [8, 30]: 100
- Plant response rating, Canarygrass [8, 31]: 95
- Plant response rating, Windgrass [9, 28]: 50
- Plant response rating, Windgrass [9, 29]: 80
- Plant response rating, Windgrass [9, 30]: 95
- Plant response rating, Windgrass [9, 31]: 70
- Plant response rating, Galium [10, 21]: 55
- Plant response rating, Galium [10, 22]: 65
- Plant response rating, Galium [10, 23]: 98
- Galium plant response rating ([10]; 250 g ai/ha, 0 to 100 scale): 98
- Plant response rating, Sunflower [11, 21]: 80
- Plant response rating, Sunflower [11, 22]: 80
- Plant response rating, Sunflower [11, 23]: 85
- Sunflower plant response rating ([11]; 250 g ai/ha, 0 to 100 scale): 100
- Plant response rating, Nightshade [12, 21]: 98
- Plant response rating, Nightshade [12, 22]: 100
- Plant response rating, Nightshade [12, 23]: 100
- Nightshade plant response rating ([12]; 250 g ai/ha, 0 to 100 scale): 100
